{"source": "ChEMBL document CHEMBL4304789", "about": "“Design, Synthesis, and Biological Evaluation of 2,4-Imidazolinedione Derivatives as HDAC6 Isoform-Selective Inhibitors” (ACS Med Chem Lett, 2019)", "key": {"Histone deacetylase 1": {"molecular_target": "Histone deacetylase 1 (Homo sapiens, UniProt Q13547)", "sequence (Q13547 whole entry)": "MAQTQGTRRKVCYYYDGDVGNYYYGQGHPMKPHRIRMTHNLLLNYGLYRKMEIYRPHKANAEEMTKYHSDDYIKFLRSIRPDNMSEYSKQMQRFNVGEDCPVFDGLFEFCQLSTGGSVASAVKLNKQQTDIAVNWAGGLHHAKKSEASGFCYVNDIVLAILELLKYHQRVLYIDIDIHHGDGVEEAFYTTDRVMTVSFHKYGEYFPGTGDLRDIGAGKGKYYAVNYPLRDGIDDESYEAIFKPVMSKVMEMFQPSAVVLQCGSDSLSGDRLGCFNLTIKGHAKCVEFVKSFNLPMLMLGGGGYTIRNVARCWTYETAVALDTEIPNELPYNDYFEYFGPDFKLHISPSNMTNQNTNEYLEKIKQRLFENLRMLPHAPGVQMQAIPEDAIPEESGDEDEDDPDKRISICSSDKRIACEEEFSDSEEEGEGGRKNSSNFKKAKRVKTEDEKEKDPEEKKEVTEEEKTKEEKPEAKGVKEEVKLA", "assay": "Inhibition of HDAC1 (unknown origin) using Ac-LeuGlyLys(Ac)-AMC as substrate preincubated for 5 mins followed by substrate addition and measured after 60 mins by fluorescence based assay"}, "[1]": {"molecular_target": "T1, Protein deacetylase HDAC6 (Homo sapiens, UniProt Q9UBN7)", "T1 sequence (Q9UBN7 whole entry)": "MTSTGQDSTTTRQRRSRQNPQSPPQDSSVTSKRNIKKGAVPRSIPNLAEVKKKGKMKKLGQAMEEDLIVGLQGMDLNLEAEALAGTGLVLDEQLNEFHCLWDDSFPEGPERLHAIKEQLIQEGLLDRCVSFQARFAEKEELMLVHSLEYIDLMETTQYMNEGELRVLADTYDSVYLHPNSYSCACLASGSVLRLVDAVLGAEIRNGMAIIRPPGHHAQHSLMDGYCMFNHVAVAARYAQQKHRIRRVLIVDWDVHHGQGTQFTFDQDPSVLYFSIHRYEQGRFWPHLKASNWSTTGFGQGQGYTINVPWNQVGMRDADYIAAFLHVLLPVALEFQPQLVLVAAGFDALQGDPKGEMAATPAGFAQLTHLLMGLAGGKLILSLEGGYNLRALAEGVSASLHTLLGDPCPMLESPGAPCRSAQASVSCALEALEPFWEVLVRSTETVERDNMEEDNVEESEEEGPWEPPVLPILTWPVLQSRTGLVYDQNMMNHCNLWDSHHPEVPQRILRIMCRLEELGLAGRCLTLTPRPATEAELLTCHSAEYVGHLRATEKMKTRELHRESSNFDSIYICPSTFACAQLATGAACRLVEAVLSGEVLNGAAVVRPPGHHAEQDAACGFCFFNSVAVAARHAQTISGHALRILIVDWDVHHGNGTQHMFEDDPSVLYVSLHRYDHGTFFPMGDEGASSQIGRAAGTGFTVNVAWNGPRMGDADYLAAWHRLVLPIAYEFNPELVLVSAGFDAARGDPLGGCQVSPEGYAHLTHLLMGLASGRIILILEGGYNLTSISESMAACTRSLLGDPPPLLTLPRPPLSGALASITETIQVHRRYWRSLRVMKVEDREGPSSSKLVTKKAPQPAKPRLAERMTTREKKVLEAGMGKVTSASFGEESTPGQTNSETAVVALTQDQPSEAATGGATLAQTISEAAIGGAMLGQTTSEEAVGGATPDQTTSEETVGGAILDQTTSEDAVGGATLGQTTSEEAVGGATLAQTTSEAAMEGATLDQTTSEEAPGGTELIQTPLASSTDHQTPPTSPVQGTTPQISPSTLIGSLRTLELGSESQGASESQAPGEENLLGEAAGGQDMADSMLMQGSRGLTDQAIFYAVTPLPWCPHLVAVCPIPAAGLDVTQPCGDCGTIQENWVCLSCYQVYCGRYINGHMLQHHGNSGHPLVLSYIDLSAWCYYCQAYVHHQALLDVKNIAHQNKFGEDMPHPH", "assay": "Inhibition of HDAC6 (unknown origin) using Ac-LeuGlyLys(Ac)-AMC as substrate preincubated for 5 mins followed by substrate addition and measured after 60 mins by fluorescence based assay"}, "Histone deacetylase 4": {"molecular_target": "Histone deacetylase 4 (Homo sapiens, UniProt P56524)", "sequence (P56524 whole entry)": "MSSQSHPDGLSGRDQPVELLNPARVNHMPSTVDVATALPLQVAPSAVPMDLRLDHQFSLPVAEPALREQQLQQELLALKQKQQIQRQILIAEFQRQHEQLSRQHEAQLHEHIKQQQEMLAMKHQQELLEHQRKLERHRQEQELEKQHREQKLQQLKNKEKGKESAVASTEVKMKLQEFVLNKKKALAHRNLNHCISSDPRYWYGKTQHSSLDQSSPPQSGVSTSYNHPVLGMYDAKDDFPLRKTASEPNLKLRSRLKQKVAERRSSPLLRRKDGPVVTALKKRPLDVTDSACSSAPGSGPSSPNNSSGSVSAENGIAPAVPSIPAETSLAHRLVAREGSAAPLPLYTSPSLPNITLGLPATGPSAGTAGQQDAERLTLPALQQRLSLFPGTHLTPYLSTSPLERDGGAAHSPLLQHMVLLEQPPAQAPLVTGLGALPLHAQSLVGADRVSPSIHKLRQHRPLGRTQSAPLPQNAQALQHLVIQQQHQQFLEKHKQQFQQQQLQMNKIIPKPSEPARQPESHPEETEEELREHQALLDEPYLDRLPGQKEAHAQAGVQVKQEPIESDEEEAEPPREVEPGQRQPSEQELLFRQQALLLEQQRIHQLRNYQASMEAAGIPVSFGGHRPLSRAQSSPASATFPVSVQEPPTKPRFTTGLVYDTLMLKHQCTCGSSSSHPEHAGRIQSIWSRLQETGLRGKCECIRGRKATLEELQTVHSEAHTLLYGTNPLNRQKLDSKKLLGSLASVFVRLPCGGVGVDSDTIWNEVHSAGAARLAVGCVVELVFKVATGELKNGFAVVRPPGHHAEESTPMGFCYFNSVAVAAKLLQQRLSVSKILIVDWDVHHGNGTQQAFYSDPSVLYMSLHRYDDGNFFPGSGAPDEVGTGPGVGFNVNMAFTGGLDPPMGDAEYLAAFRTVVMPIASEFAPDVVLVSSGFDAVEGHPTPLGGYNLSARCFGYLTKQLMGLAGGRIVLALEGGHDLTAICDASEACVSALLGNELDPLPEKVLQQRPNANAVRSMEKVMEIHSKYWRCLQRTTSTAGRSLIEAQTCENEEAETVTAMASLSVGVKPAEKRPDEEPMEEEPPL", "assay": "Inhibition of HDAC4 (unknown origin) using Ac-LeuGlyLys(tfa)-AMC as substrate preincubated for 5 mins followed by substrate addition and measured after 60 mins by fluorescence based assay"}, "Histone deacetylase 5": {"molecular_target": "Histone deacetylase 5 (Homo sapiens, UniProt Q9UQL6)", "sequence (Q9UQL6 whole entry)": "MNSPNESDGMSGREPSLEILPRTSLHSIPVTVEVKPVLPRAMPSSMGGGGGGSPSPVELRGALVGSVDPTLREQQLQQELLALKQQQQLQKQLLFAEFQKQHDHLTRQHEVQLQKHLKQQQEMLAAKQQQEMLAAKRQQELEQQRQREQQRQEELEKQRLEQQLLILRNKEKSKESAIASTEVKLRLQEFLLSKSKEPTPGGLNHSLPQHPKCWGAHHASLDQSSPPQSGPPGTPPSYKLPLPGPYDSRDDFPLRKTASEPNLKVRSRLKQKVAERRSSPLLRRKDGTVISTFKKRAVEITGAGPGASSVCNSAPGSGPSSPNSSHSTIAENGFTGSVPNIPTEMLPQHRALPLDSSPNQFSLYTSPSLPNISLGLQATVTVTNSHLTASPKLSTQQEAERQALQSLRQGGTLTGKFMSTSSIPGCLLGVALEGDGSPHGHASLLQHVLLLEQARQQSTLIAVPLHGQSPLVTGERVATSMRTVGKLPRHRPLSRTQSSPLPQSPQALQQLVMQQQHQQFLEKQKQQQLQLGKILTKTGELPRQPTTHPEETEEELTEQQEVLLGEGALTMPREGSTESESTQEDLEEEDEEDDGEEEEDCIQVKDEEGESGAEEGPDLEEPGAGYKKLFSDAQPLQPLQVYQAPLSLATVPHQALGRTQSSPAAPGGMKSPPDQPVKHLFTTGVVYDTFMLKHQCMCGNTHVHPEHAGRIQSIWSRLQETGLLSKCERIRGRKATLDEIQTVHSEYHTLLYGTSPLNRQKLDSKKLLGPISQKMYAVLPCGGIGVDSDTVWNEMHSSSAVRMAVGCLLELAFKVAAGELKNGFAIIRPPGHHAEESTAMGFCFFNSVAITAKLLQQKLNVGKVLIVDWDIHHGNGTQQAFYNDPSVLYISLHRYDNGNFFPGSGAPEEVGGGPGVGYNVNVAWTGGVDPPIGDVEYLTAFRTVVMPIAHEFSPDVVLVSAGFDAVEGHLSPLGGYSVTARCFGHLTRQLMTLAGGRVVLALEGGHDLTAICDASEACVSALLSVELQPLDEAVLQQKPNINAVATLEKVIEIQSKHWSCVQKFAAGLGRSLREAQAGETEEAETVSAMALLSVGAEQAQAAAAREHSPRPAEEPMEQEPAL", "assay": "Inhibition of HDAC5 (unknown origin) using Ac-LeuGlyLys(tfa)-AMC as substrate preincubated for 5 mins followed by substrate addition and measured after 60 mins by fluorescence based assay"}, "Histone deacetylase 9": {"molecular_target": "Histone deacetylase 9 (Homo sapiens, UniProt Q9UKV0)", "sequence (Q9UKV0 whole entry)": "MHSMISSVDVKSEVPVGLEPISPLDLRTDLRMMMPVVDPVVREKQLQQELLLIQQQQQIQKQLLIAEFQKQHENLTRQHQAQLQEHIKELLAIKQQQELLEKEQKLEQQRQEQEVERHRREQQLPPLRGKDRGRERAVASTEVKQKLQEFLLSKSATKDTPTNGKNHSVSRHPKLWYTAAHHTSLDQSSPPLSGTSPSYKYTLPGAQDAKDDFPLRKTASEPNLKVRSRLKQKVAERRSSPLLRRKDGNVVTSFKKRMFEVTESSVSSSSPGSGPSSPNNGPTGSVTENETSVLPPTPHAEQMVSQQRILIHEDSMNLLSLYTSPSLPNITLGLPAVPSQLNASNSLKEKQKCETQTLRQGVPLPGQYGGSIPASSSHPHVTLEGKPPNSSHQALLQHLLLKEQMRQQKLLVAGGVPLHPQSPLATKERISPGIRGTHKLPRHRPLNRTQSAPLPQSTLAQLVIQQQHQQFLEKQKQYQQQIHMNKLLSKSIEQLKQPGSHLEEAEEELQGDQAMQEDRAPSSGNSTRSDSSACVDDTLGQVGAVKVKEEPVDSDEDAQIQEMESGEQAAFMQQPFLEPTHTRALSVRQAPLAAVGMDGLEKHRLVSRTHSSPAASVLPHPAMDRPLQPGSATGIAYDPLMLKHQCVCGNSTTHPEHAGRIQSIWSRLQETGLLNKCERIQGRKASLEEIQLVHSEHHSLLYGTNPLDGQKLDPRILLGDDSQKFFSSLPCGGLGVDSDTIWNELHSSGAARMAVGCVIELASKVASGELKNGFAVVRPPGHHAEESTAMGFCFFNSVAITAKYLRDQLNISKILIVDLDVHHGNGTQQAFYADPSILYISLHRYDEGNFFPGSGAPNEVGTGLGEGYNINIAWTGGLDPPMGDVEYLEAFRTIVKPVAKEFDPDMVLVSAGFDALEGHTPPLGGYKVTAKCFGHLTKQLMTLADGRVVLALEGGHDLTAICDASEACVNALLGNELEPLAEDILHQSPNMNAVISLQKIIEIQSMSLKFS", "assay": "Inhibition of HDAC9 (unknown origin) using Ac-LeuGlyLys(tfa)-AMC as substrate preincubated for 5 mins followed by substrate addition and measured after 60 mins by fluorescence based assay"}, "[2]": {"molecular_target": "T2, Polyamine deacetylase HDAC10 (Homo sapiens, UniProt Q969S8)", "T2 sequence (Q969S8 whole entry)": "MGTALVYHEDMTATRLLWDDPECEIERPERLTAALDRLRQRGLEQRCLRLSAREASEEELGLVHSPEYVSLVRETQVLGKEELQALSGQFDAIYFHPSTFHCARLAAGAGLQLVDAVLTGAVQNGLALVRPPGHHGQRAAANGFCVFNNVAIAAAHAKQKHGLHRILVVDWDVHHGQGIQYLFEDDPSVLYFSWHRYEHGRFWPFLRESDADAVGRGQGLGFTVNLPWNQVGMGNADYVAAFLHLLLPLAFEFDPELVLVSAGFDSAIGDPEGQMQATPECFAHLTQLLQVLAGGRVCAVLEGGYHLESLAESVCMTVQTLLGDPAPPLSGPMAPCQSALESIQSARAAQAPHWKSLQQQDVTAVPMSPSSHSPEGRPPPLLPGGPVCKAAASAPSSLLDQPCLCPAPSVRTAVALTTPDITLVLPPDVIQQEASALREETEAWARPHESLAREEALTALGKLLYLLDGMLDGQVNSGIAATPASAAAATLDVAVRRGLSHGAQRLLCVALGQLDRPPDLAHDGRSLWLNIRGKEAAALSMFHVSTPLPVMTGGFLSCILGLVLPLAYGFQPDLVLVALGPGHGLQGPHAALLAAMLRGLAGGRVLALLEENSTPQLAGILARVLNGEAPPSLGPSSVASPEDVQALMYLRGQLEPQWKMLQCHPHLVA", "assay": "Inhibition of HDAC10 (unknown origin) using Ac-ArgThr- Lys(Ac)Lys(Ac)-AMC as substrate preincubated for 5 mins followed by substrate addition and measured after 60 mins by fluorescence based assay"}, "Histone deacetylase 11": {"molecular_target": "T3, Histone deacetylase 11 (Homo sapiens, UniProt Q96DB2)", "T3 sequence (Q96DB2 whole entry)": "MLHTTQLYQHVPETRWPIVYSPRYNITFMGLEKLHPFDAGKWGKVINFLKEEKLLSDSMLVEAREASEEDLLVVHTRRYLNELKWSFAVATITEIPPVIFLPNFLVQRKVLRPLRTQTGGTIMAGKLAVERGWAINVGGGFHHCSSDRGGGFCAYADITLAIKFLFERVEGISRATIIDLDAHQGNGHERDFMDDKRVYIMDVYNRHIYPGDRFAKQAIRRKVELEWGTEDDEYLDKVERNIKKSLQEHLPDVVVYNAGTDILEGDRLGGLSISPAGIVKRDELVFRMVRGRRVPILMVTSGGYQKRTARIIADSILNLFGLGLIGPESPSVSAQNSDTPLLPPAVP", "assay": "Inhibition of HDAC11 (unknown origin) using Ac-LeuGlyLys(Ac)-AMC as substrate preincubated for 5 mins followed by substrate addition and measured after 60 mins by fluorescence based assay"}, "RPMI-8226": {"system": "RPMI-8226", "assay": "Antiproliferative activity against human RPMI8226 cells incubated for 48 hrs by MTT assay", "type": "functional, cell-based", "details": "RPMI-8226, 48 h"}, "HCT-116": {"system": "HCT-116", "assay": "Antiproliferative activity against human HCT116 cells incubated for 48 hrs by MTT assay", "type": "functional, cell-based", "details": "HCT-116, 48 h"}}, "note": "pIC50: −log10 of the molar value."}
{"smiles": "O=C(CCC1C(=O)N(c2ccc(Cl)cc2)C(=O)N1Cc1ccccc1)Nc1ccc(C(=O)NO)cc1", "note": "(configuration not stated)", "values": [{"measurement": "pIC50", "setting": "Histone deacetylase 1", "value": 6.95}, {"measurement": "pIC50", "setting": "[1]", "value": 8.12}, {"measurement": "pIC50", "setting": "Histone deacetylase 4", "value": 4.57}, {"measurement": "pIC50", "setting": "Histone deacetylase 5", "value": 5.34}, {"measurement": "pIC50", "setting": "Histone deacetylase 9", "value": 4.82}, {"measurement": "pIC50", "setting": "[2]", "value": 6.94}, {"measurement": "pIC50", "setting": "Histone deacetylase 11", "value": "< 4.00"}, {"measurement": "pIC50", "setting": "RPMI-8226", "value": 6.19}, {"measurement": "pIC50", "setting": "HCT-116", "value": 5.65}]}
{"smiles": "Cc1ccc(CN2C(=O)N(c3ccc(Cl)cc3)C(=O)C2CCC(=O)Nc2ccc(C(=O)NO)cc2)cc1", "note": "(configuration not stated)", "values": [{"measurement": "pIC50", "setting": "Histone deacetylase 1", "value": 6.02}, {"measurement": "pIC50", "setting": "[1]", "value": 8.36}, {"measurement": "pIC50", "setting": "Histone deacetylase 4", "value": "< 4.00"}, {"measurement": "pIC50", "setting": "Histone deacetylase 5", "value": 4.83}, {"measurement": "pIC50", "setting": "Histone deacetylase 9", "value": "< 4.00"}, {"measurement": "pIC50", "setting": "[2]", "value": 6.79}, {"measurement": "pIC50", "setting": "Histone deacetylase 11", "value": "< 4.00"}, {"measurement": "pIC50", "setting": "RPMI-8226", "value": 6.64}, {"measurement": "pIC50", "setting": "HCT-116", "value": 6.08}]}
{"smiles": "O=C(CCC1C(=O)N(c2ccc(Cl)cc2)C(=O)N1Cc1ccc(Br)cc1)Nc1ccc(C(=O)NO)cc1", "note": "(configuration not stated)", "values": [{"measurement": "pIC50", "setting": "Histone deacetylase 1", "value": 6.71}, {"measurement": "pIC50", "setting": "[1]", "value": 8.01}, {"measurement": "pIC50", "setting": "Histone deacetylase 4", "value": "< 4.00"}, {"measurement": "pIC50", "setting": "Histone deacetylase 5", "value": 5.34}, {"measurement": "pIC50", "setting": "Histone deacetylase 9", "value": 5.04}, {"measurement": "pIC50", "setting": "[2]", "value": 6.57}, {"measurement": "pIC50", "setting": "Histone deacetylase 11", "value": "< 4.00"}, {"measurement": "pIC50", "setting": "RPMI-8226", "value": 6.44}, {"measurement": "pIC50", "setting": "HCT-116", "value": 5.90}]}
